Results reported in US8193238B2, “Inhibition of microtubule protrusion in cancer cells” (University of Maryland, Baltimore, priority 2006, dated 2012).
Entries after “also recorded” stand apart in the source; their conditions may differ.

Assays:
MCF10A cells [1] = experiment: Protrusions in suspended cells treated with cytoskeletal inhibitors (MCF10A); type: cell-based, human; details: MCF10A, 15 minutes of suspension; Latrunculin-A 5 μM, Colchicine 1 μM
Experimental: (§1) In FIG. 2A, after 15 minutes of suspension, protrusions in EpH4 and MCF10A cells are quite small (Control, white arrows). […] In FIG. 2B, populations of live, suspended cells were scored blindly for two or more protrusions longer than the cell radius. Each bar represents the mean+S.D. for three experiments in which at least 100 single cells were counted.
(§2) In order to initially characterize the cytoskeletal mechanism underlying these protrusions, suspended cells were treated with inhibitors of actin and tubulin polymerization (FIG. 2). After 15 minutes of suspension, the protrusions in untreated EpH4 or MCF10A cells remain fairly short (FIG. 2, white arrows). These early protrusions can often be difficult to detect with phase-contrast microscopy, due to interfering light refraction from the plasma membrane. […] Protrusions were more easily visible with immunofluorescence than phase contrast microscopy (FIG. 3, white arrows). Although actin filament staining was generally low along the length of the protrusion, dense points of actin were often found at the end of protrusions (FIG. 3, arrowheads).
The nontumorigenic human mammary epithelial cell line (MCF10A) or the indicated human breast tumor cell lines were grown in suspension for 30-60 minutes, and protrusions were counted in random fields with phase-contrast microscopy. Values represent the mean±S.D. of three experiments in which at least 100 cells were counted. […] This effect was most apparent in the highly metastatic but exemplary Bt-474 and MDA-MB-231 cells (pictured, black arrows). The exemplary MCF10A cells show far fewer and shorter protrusions at the same time point (pictured, white arrows). Such protrusions are not observed in attached cells.

EpH4 cells = experiment: Protrusions in suspended cells treated with cytoskeletal inhibitors (EpH4); type: cell-based, mouse; details: EpH4, 15 minutes of suspension; Latrunculin-A 5 μM, Colchicine 1 μM
Experimental: as §1
EpH4 cells were suspended in either DMEM (Control) or media containing 5 μM Latrunculin-A (LA), 1 μM Colchicine or the combination of both drugs for 30 minutes. Cells were then spun onto glass coverslips and fluorescently stained for α-tubulin (green) and polymerized actin (red). Protrusions that are difficult to see by phase contrast are easily discernible with immunostaining for α-tubulin (white arrows). Protrusions contain little polymerized actin, except at points of concentration, which are often at the end (arrowhead).
EpH4 and B19 cells were suspended over 2% agarose coated plates to prevent attachment in either serum-free DMEM or media containing. Latrunculin-A (5 μM) to enhance protrusions. For co-staining of α-tubulin and actin, suspended cells were then centrifuged onto poly-L-lysine coated coverslips (280 g×5 min), fixed in 3.7% formaldehyde in PBS for 10 min, and permeablized with 0.1% Triton X-100 in PBS. Adhered cells were then stained for 1 hr at room temperature using FITC-conjugated anti-α-tubulin (1:200; Sigma), Alexa-594 phalloidin (1:100; Molecular Probes), and Hoescht 33342 (1:5000; Sigma).
as §2

[2] = tested on: detached mammary epithelial cells; experiment: Protrusions of detached mammary epithelial cells, general statements; type: cell-based, human and mouse
Experimental: Time-lapse video microscopy of detached mammary epithelial cells detected the extension of long, dynamic protrusions of the plasma membrane, and the present inventors have characterized the cytoskeletal mechanism underlying this novel observation. […] This response may be relatively short-lived, in specific embodiments, since mammary epithelial cells die by apoptosis within about 24 hours in suspension. However, cell lines that resist apoptosis through expression of either Bcl-2 or Bcl-xL will persistently form protrusions. Previous studies by the inventors indicate that such apoptotically-resistant cell lines will not form tumors in mice and lie dormant in distant tissues, in specific embodiments of the invention. […] These microtubule processes can extend more than 3 times the cell diameter, and undergo a rapid probing motion more than once per second. Formation of these microtubule protrusions is necessary for efficient cell-cell and cell-substratum attachment. In particular embodiments of the invention, this inherent microtubule response in detached mammary epithelial cells provides at least some of the invasive characteristics of breast cancer, independent of any tumor-specific genetic alteration, for example.
Breast tumor cells enter the bloodstream long before the development of clinically evident metastasis. However, the early presence of such bloodborne cells predicts poor patient outcome. Nearly 90% of human breast tumors arise as carcinomas from mammary epithelial cells, so it is important to characterize how these cells respond to the detached conditions that they would experience in the bloodstream. In the present invention, mammary epithelial cell lines produce long and dynamic protrusions of the plasma membrane when detached. Although human and mouse mammary epithelial cell lines die by apoptosis within 16 hours of detachment, this protrusive response persists for days in cells overexpressing either Bcl-2 or Bcl-xL, for example. […] Since bloodborne metastasis depends on both cell-cell and cell-matrix attachment, microtubule-based protrusions in detached mammary epithelial cells provide a novel target that could influence the metastatic spread of breast tumors.
Detachment-induced increases in Glu-tubulin could promote plasma membrane protrusions of microtubules by preventing efficient capture at the actin cortex. […] Therefore, our current model is that detachment increases stabilized microtubules enriched in Glu-tubulin, while decreased actin polymerization simply promotes extension of these microtubule protrusions.

[3] = tested on: chicken erythrocytes from day 2 embryos; details: cited from earlier work
MCF10A cells [4] = experiment: Chemical inhibition of Latrunculin-A-enhanced microtubule protrusions in suspended cells; type: cell-based, human
Experimental: MCF10A cells were placed into suspension in the presence of the indicated chemical inhibitors targeted at specific signaling pathways or the corresponding vehicle controls. Cells were then treated with the actin polymerization inhibitor, Latrunculin-A (LA, 5 μM) for one hour to enhance protrusions. […] Thus, protrusions can be reduced by chemical inhibition of specific signaling proteins.

cells = type: cell-based; details: indicated concentrations, 2 hours
metastasis = details: known, via unclear mechanism; cited from earlier work
MCF10A cells [5] = details: MCF10A treated two hours
Bt-474 = experiment: GFP-membrane protrusion counts after local anesthetics (Bt-474); type: cell-based, human; details: Bt-474, GFP-membrane; Lidocaine 50 mM, Tetracaine 2.5 mM; with or without LA
Experimental: (§3) Cells were then suspended in DMEM culture media with or without […] Latrunculin-A (LA) to induce protrusions by depolymerizing actin. […] Bars represent mean+S.D. of at least three blindly counted experiments.

MDA-231 = experiment: GFP-membrane protrusion counts after local anesthetics (MDA-231); type: cell-based, human; details: MDA-231, GFP-membrane; Lidocaine 50 mM, Tetracaine 2.5 mM; with or without LA
Experimental: as §3

C=C1[C@@H](C)[C@H]2[C@H](Cc3ccccc3)NC(=O)[C@]23[C@H](OC(C)=O)/C=C/[C@@](C)(O)C(=O)[C@@H](C)C/C=C/[C@H]3[C@@H]1O [Cytochalasin-D]
protrusions (MCF10A cells [1]): increased protrusions
protrusions (EpH4 cells): increased protrusions
protrusions [2]: enhanced; also recorded: promotes the extension of microtubule protrusions
microtubule processes [3]: promotes microtubule processes

Cn1sc(=O)n(Cc2ccccc2)c1=O [TDZD-8]
protrusions (MCF10A cells [4]; MCF10A in suspension, then LA 5 μM one hour, sodium orthovanadate 1 mM, S-Trityl-L-Cysteine 100 μM, TDZD-8 20 μM): strongest inhibition of protrusions
protrusion frequency (MCF10A cells [4]; one hour of treatment): reduce protrusion frequency significantly
cell viability (cells): did not reduce cell viability significantly

CCCCNc1ccc(C(=O)OCCN(C)C)cc1 [Tetracaine]
metastasis (metastasis): reduce metastasis
concentration showing significant cell toxicity (MCF10A cells [5]): ≥ 3000 µM
cell toxicity (MCF10A cells [5]; Lidocaine up to 50 mM): cytotoxic
protrusions (Bt-474): inhibited significantly
protrusions (MDA-231): inhibited significantly
